T1: recombinant human ADAMTS-4 (Homo sapiens, UniProt O75173)
T1 sequence (O75173 213-837): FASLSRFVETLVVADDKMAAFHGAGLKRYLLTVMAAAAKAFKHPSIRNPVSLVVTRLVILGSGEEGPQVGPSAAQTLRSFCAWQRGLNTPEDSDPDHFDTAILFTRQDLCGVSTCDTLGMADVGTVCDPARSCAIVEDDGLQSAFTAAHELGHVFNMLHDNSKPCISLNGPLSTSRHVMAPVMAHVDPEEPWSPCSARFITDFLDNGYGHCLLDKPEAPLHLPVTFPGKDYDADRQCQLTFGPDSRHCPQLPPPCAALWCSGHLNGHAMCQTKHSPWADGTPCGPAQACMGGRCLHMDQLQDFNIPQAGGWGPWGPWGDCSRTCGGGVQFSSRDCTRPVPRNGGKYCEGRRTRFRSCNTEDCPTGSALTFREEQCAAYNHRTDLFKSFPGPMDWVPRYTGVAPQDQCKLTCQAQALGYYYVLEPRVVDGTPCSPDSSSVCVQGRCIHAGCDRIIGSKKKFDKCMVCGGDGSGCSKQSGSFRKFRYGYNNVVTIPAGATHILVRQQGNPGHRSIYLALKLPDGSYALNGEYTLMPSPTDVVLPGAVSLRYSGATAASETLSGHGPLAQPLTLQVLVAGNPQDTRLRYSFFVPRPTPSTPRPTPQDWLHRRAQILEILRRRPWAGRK

T2: Recombinant human ADAMTS-SI (Homo sapiens, UniProt Q9P2N4)
T2 construct: made in house
T2 sequence (Q9P2N4 288-1629 isoform Q9P2N4-1 limits assumed): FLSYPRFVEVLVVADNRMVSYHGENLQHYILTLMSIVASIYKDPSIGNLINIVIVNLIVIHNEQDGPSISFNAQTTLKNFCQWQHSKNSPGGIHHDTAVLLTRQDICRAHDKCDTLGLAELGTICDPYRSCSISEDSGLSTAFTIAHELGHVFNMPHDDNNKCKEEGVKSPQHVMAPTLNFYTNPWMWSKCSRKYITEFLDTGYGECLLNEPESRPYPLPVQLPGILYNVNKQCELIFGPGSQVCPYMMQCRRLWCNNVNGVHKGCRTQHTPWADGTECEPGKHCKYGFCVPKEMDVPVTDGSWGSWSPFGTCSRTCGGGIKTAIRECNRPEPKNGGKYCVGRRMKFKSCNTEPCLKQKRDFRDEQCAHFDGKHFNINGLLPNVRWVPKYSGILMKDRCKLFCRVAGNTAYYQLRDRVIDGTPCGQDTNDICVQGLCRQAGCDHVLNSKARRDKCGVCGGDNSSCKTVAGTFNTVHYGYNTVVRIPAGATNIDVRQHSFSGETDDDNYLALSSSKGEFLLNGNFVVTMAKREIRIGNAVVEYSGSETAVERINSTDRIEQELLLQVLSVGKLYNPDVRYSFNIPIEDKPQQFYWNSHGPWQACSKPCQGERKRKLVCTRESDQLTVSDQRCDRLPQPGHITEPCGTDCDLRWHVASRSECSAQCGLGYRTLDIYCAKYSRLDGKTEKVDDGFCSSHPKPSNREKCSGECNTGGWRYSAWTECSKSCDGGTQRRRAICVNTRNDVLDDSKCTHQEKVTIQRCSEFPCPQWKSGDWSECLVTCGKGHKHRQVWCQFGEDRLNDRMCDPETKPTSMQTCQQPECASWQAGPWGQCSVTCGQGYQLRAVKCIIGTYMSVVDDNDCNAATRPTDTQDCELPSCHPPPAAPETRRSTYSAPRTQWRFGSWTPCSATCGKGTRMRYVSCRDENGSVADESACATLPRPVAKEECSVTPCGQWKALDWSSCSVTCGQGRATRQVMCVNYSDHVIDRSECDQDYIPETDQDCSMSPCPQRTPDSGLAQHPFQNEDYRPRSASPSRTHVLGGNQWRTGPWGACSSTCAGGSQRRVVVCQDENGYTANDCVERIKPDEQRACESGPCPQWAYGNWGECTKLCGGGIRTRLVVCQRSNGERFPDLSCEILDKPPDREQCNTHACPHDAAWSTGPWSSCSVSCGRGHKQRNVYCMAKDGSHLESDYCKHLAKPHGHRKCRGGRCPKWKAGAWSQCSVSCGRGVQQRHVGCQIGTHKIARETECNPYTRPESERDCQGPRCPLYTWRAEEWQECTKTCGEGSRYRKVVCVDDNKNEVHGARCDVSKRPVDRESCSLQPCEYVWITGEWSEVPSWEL

B1: recombinant human ADAMTS-4 (protein)
chain: T1 sequence (O75173 213-837)
B2: Recombinant human ADAMTS-SI (protein)
chain: T2 sequence (Q9P2N4 288-1629 isoform Q9P2N4-1 limits assumed)

Experiments:
[1] = biological target: T1, recombinant human ADAMTS-4; experiment: Western blot (anti-NITEGE neoepitope) of aggrecanase substrate cleavage by ADAMTS-4 ± compound I; format: biochemical; conditions: 1 μM compound I, 1 μM substrate, 18 hours at 37° C., FIG. 8
Description: (§1) Recombinant human ADAMTS-SI (20 μl) and recombinant human ADAMTS-4 (MD Tortorella, Science, 284:1664) (20 μl) were incubated with 1 μM of aggrecanase substrate (aggrecan protein containing the interglobular domain (IGD)). The substrate is cleaved at the relevant aggrecanase site by aggrecanases such as ADAMTS-4. […] The aggrecanase substrate has been used to assess the activity of various aggrecanases, such as ADAMTS-4, and their inhibitors, such as compound I, shown below, and described in EP 1081137, published Mar. 7, 2001: [drawing 1]
(§2) Incubations were carried out in 20 μl TSC buffer (50 mM Tris, pH 7.5 100 mM NaCl, 10 mM CaCl2) with protease inhibitor cocktail (“Complete”, EDTA free from Roche: catalog number 1873580)±1 μM compound I, for 18 hours at 37° C. The reactions were stopped by the addition of EDTA to 10 mM final concentration. The reaction mixtures were prepared for SDS-PAGE by the addition of 40 μl 2× sample buffer (Novex) containing 0.5 M DTT and then separated on 4-20% Tris glycine gels (Novex). […]
(§3) Treatment of the aggrecan protein with aggrecanases results in the formation of a characteristic cleavage site in the IGD. […] The crude rabbit antiserum was affinity purified against the corresponding neoepitope sequence and absorbed against a read-through peptide to ensure specificity for the neoepitope sequence. […]

[2] = system: aggrecan degradation induced by intraarticular injection of IL-1; conditions: hamsters, intraarticular injection of IL-1, 30 mg/kg p.o.; cited from earlier work
[3] = biological target: T2, Recombinant human ADAMTS-SI; experiment: Western blot (anti-NITEGE neoepitope) of aggrecanase substrate cleavage by ADAMTS-SI ± compound I; format: biochemical; conditions: 1 μM compound I, 1 μM substrate, 18 hours at 37° C., FIG. 8
Description: as §1, §2, §3

[4] = biological target: aggrecanase activity secreted by human osteoarthritic cartilage; conditions: cited from earlier work
[5] = system: IL-1 induced aggrecan degradation in human osteoarthritic cartilage explants; conditions: cited from earlier work
[6] = system: aggrecanase substrate (aggrecan protein containing the interglobular domain (IGD)); experiment: Cleavage of aggrecanase substrate by recombinant enzymes (anti-NITEGE Western blot); format: biochemical; conditions: 20 μl enzyme, 1 μM substrate, 18 hours at 37° C., FIG. 8
Description: as §1, §2, §3

[7] = biological target: aggrecanase substrate (aggrecan protein containing the interglobular domain (IGD)), uncleaved

Molecule | inhibition of ADAMTS-4 aggrecanase activity (cleavage of aggrecanase substrate) [1] | inhibition of aggrecan degradation [2] [% inhibition] | inhibition of ADAMTS-SI aggrecanase activity (cleavage of aggrecanase substrate) [3] | IC50 [4] [nM] | IC50 [5] [nM] | cleavage of aggrecanase substrate at aggrecanase site (NITEGE neoepitope) [6] | cleavage of the aggrecanase substrate at the aggrecanase site (Western blot with anti-NITEGE neoepitope antibody) [7]
C[C@@]1(O)CCCN(S(=O)(=O)c2ccc(OCc3ccc(F)cc3Cl)cc2)[C@H]1C(=O)NO [compound I] | blocked | 93 | blocked | 4.1 | 8 |  | 
B1 |  |  |  |  |  | resulted in cleavage at the previously characterized aggrecanase cleavage site | treatment of the substrate with both ADAMTS-4 and ADAMTS-SI resulted in cleavage at the previously characterized aggrecanase cleavage site
B2 |  |  |  |  |  |  | treatment of the substrate with both ADAMTS-4 and ADAMTS-SI resulted in cleavage at the previously characterized aggrecanase cleavage site

Reference: US20020090373A1, “ADAMTS polypeptides, nucleic acids encoding them, and uses thereof” (priority 2000, published 2002)
